Measured values: article PMC4979471 (Cell Death Discovery, 2015)
Like-named read-outs stand apart in the source and are kept apart here.

Columns and labels:
Assay in all cases: Kinase selectivity, P33-radiolabeled assay
Format in all cases: biochemical
Conditions in all cases: 10 μM ATP
CK1d = molecular target: T1, CK1d (Homo sapiens, UniProt P48730)
T1 construct: purchased Reaction Biology Corp
Procedure, shortened: (§1)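 Percent residual kinase activity versus DMSO is reported. Conditions: compound at 10 μM, ATP at 10 μM, n = 2.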

CK2a2 = molecular target: T2, CK2a2 (Homo sapiens, UniProt P19784)
T2 construct: purchased Reaction Biology Corp
T2 sequence (P19784 whole entry): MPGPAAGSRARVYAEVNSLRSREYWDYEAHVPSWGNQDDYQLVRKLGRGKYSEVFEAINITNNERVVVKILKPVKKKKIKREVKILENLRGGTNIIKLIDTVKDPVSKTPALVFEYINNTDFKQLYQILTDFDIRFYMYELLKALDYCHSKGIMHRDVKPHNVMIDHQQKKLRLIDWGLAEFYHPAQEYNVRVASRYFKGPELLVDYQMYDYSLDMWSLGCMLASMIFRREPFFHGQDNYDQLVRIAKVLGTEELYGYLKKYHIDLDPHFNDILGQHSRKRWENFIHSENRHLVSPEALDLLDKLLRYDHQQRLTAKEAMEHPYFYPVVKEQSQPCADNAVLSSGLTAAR
Procedure, shortened: as §1

EGFR = molecular target: T3, EGFR (Homo sapiens, UniProt P00533)
T3 construct: purchased Reaction Biology Corp
T3 sequence (P00533 25-1210): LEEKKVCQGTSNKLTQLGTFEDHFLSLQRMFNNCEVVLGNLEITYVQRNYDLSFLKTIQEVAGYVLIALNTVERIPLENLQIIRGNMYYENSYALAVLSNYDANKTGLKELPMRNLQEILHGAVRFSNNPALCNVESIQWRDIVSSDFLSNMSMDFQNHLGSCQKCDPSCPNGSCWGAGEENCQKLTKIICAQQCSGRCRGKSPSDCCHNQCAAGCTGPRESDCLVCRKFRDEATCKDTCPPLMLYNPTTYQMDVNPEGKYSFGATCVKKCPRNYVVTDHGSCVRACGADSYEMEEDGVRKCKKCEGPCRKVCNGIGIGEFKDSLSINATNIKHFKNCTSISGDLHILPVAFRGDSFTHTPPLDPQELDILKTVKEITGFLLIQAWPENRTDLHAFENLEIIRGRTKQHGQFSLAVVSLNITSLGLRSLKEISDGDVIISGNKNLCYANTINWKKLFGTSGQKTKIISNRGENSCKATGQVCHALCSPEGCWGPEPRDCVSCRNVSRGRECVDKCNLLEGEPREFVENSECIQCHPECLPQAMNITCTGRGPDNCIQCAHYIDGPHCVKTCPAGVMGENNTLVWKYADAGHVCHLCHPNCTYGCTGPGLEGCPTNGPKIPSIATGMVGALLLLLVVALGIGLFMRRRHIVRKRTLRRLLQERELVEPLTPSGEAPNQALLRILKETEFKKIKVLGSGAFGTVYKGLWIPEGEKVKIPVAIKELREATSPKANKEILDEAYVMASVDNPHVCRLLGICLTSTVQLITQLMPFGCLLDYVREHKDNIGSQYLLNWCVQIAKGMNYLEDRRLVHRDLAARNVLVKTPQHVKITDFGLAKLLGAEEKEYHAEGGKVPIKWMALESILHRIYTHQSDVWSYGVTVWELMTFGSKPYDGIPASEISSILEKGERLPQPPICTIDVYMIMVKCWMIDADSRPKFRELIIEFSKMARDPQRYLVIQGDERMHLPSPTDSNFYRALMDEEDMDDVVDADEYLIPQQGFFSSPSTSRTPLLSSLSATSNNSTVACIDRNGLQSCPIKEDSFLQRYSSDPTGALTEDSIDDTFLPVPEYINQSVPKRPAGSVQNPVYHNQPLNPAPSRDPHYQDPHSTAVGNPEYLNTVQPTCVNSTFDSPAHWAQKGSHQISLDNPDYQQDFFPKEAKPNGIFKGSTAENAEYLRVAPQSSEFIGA
Procedure, shortened: as §1

FGFR4 = molecular target: T4, FGFR4 (Homo sapiens, UniProt P22455)
T4 construct: purchased Reaction Biology Corp
T4 sequence (P22455 22-802): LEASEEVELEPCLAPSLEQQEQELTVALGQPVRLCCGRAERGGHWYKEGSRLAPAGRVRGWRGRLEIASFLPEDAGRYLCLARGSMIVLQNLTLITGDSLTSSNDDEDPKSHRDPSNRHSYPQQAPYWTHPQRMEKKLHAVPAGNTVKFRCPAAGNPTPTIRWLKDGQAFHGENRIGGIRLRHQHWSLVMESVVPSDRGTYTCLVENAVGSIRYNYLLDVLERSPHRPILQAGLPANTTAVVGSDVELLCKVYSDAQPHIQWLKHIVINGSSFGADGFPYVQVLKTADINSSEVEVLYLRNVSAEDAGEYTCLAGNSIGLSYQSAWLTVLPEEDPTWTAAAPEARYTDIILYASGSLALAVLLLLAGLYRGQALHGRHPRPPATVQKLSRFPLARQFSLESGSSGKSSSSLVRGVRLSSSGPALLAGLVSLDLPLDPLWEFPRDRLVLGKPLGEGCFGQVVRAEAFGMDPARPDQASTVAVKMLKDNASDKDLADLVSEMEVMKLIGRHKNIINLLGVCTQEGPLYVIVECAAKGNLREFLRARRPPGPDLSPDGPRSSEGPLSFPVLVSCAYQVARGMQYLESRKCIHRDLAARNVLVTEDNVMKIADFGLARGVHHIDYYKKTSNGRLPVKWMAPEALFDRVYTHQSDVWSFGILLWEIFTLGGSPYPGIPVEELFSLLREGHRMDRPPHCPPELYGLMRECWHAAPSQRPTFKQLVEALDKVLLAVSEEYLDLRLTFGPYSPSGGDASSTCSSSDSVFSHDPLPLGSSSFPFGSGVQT
Procedure, shortened: as §1

NEK3 = molecular target: T5, NEK3 (Homo sapiens, UniProt P51956)
T5 construct: purchased Reaction Biology Corp
T5 sequence (P51956 1-506): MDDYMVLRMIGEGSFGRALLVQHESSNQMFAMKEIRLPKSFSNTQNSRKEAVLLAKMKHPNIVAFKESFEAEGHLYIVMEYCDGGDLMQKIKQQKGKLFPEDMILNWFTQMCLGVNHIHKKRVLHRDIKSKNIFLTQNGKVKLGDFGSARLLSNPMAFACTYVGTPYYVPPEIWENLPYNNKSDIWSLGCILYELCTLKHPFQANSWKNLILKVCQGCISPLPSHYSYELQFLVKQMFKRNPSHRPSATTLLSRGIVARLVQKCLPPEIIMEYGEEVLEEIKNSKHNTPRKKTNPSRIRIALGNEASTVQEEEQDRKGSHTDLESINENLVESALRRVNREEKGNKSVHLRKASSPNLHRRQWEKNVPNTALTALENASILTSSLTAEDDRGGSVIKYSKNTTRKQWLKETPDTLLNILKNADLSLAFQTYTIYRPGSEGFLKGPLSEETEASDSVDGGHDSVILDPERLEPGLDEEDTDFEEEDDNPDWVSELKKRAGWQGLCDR
Procedure, shortened: as §1

SLK/STK2 = molecular target: T6, SLK/STK2 (Homo sapiens, UniProt Q9H2G2)
T6 construct: purchased Reaction Biology Corp
T6 sequence (Q9H2G2 whole entry): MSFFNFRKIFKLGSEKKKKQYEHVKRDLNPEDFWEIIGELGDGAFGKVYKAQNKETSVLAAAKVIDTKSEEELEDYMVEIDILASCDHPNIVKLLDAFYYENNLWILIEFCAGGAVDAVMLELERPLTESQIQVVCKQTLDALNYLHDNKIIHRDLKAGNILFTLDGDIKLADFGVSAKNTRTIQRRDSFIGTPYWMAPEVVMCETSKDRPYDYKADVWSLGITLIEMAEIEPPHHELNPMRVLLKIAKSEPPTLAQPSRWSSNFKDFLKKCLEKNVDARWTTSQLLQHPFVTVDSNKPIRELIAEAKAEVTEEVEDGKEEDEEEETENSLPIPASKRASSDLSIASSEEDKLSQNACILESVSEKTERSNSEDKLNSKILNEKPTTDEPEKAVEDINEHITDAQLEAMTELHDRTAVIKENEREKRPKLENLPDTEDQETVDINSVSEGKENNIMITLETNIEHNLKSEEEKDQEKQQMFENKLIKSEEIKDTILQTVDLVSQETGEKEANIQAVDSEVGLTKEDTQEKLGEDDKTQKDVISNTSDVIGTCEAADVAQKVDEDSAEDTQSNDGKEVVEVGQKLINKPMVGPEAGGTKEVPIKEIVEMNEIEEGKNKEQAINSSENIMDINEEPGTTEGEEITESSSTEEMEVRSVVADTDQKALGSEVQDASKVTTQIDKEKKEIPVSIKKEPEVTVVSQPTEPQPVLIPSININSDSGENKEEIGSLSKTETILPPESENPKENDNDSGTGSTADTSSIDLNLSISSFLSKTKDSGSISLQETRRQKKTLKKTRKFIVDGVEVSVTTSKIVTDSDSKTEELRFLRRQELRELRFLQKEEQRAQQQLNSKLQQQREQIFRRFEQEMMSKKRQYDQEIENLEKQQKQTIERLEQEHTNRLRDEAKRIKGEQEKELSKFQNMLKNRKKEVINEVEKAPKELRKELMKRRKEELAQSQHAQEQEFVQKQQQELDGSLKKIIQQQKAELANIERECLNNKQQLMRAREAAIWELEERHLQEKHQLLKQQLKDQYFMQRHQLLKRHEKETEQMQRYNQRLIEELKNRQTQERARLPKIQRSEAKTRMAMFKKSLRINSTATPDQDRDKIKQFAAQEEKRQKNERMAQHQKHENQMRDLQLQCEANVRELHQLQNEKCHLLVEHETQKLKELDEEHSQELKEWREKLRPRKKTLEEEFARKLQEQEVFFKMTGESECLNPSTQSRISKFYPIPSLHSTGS
Procedure, shortened: as §1

SNARK/NUAK2 = molecular target: T7, SNARK/NUAK2 (Homo sapiens, UniProt Q9H093)
T7 construct: purchased Reaction Biology Corp
T7 sequence (Q9H093 1-628): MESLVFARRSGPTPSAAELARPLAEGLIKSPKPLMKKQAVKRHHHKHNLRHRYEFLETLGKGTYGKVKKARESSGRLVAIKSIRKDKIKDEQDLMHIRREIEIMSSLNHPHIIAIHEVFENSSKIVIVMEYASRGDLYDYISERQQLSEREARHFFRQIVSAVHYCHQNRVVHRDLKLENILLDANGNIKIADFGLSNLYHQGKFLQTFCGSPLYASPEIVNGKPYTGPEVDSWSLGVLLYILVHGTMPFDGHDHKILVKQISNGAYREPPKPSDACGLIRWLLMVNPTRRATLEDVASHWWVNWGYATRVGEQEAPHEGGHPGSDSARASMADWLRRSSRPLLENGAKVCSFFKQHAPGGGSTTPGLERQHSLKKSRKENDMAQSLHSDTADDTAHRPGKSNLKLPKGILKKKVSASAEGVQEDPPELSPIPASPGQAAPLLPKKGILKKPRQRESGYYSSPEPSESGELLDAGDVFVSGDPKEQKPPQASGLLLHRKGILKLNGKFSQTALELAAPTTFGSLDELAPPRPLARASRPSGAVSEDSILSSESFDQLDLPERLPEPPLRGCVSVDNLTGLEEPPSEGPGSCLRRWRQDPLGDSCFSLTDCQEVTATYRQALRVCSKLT
Procedure, shortened: as §1

WEE1 = molecular target: T8, WEE1 (Homo sapiens, UniProt P30291)
T8 construct: purchased Reaction Biology Corp
T8 sequence (P30291 whole entry): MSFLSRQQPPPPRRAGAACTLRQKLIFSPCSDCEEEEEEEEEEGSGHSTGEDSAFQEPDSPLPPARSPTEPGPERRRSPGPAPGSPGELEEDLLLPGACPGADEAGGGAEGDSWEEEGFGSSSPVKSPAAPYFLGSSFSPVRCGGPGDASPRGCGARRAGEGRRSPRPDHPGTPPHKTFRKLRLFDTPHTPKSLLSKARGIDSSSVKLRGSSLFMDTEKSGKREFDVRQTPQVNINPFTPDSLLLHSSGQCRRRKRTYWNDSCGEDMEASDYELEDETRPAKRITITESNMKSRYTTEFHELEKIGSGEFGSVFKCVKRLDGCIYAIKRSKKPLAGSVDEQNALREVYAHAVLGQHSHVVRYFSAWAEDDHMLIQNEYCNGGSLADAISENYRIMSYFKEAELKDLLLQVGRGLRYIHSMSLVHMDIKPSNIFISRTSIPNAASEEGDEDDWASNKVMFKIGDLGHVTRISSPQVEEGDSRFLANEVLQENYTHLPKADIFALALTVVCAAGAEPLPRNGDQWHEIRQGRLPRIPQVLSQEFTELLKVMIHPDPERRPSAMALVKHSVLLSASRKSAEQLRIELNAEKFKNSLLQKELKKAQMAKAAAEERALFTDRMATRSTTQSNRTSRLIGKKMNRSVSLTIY
Procedure, shortened: as §1

c-MER = molecular target: T9, c-MER (Homo sapiens, UniProt Q12866)
T9 construct: purchased Reaction Biology Corp
T9 sequence (Q12866 21-999): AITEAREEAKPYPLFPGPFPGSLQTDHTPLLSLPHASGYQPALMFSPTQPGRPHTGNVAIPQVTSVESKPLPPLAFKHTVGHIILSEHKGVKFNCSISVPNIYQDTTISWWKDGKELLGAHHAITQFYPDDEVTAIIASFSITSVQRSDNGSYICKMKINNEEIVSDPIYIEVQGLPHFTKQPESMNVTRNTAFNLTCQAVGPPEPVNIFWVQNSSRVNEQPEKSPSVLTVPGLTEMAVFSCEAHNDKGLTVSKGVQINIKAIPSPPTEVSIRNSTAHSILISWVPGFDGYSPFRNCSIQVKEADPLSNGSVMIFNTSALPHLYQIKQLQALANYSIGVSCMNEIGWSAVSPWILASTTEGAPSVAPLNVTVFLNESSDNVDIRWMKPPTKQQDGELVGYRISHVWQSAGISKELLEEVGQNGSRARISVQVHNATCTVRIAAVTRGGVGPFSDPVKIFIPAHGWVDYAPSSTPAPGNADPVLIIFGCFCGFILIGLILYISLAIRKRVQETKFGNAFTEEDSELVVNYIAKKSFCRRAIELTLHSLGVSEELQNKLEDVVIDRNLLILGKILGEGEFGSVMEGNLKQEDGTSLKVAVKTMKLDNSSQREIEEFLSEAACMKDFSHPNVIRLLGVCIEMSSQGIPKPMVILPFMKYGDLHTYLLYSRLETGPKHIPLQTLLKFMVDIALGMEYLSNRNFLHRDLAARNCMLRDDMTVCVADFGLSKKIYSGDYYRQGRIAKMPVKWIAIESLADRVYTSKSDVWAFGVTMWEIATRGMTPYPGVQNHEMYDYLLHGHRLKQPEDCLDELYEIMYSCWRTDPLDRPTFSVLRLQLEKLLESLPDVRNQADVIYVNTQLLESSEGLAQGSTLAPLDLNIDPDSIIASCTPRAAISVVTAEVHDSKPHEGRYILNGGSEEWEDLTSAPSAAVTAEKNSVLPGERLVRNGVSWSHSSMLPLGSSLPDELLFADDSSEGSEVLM
Procedure, shortened: as §1

[1] = read-out: % Enzyme Activity (relative to DMSO controls) AVG
[2] = read-out: % Enzyme Activity (relative to DMSO controls) Data 1
[3] = read-out: % Enzyme Activity (relative to DMSO controls) Data 2

T1 sequence (P48730 whole entry): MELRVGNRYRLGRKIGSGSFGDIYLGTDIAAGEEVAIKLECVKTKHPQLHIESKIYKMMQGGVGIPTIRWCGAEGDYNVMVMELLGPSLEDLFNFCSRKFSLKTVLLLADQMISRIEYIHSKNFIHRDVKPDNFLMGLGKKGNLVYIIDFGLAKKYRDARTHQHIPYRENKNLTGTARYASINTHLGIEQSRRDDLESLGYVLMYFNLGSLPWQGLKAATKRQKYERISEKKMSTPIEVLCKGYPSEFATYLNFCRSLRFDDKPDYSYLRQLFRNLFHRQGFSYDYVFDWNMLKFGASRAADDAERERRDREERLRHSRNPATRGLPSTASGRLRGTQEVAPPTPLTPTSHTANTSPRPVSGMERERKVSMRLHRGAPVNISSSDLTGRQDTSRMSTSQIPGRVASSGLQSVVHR

Molecule `CC(C)(C)C(=O)N1N=CC[C@H]1c1ccccc1` [GSK′963] has a remaining activity at 10 µM (CK1d; [1]) of 96.7%, a remaining activity at 10 µM (CK1d; [2]) of 94.1% and a remaining activity at 10 µM (CK1d; [3]) of 99.2%. For the same molecule, the remaining activity at 10 µM (CK2a2; [1]) was 107%, the remaining activity at 10 µM (CK2a2; [2]) was 108% and the remaining activity at 10 µM (CK2a2; [3]) was 107%. The remaining activity at 10 µM (EGFR; [1]) was 106%, the remaining activity at 10 µM (EGFR; [2]) was 105% and the remaining activity at 10 µM (EGFR; [3]) was 108%. It also gave a remaining activity at 10 µM (FGFR4; [1]) of 93.5%, a remaining activity at 10 µM (FGFR4; [2]) of 91.5% and a remaining activity at 10 µM (FGFR4; [3]) of 95.6%. For the same molecule, the remaining activity at 10 µM (NEK3; [1]) was 93.5%, the remaining activity at 10 µM (NEK3; [2]) was 93.2% and the remaining activity at 10 µM (NEK3; [3]) was 93.8%. The remaining activity at 10 µM (SLK/STK2; [1]) was 86.9%, the remaining activity at 10 µM (SLK/STK2; [2]) was 85.3% and the remaining activity at 10 µM (SLK/STK2; [3]) was 88.5%. For the same molecule, the remaining activity at 10 µM (SNARK/NUAK2; [1]) was 99.1%, the remaining activity at 10 µM (SNARK/NUAK2; [2]) was 99.2% and the remaining activity at 10 µM (SNARK/NUAK2; [3]) was 99%. The remaining activity at 10 µM (WEE1; [1]) was 85.6%, the remaining activity at 10 µM (WEE1; [2]) was 81.9% and the remaining activity at 10 µM (WEE1; [3]) was 89.2%. The remaining activity at 10 µM (c-MER; [1]) was 94.8%, the remaining activity at 10 µM (c-MER; [2]) was 94.5% and the remaining activity at 10 µM (c-MER; [3]) was 95.1%.
